assay: RP, Thermo Scientific Acclaim RSLC 120 C18, 100 × 2.1 mm, 2.2 µm, 30 °C, 0.2 mL/min, estimated dead time 1.1 min; A: 90% water + 10% methanol + 0.01% formic acid + 5 mM ammonium formate, pH 3.61; B: methanol + 0.01% formic acid + 5 mM ammonium formate, pH 3.61; gradient (min/%B) 0/1 1/1 2/39 13/99.9 15/99.9 15.1/1 20.1/1; details: stereoisomer not certain

Q: With `CC(=O)Nc1ccc(-c2ccc(C=NN3CC(=O)NC3=O)o2)cc1` [Acetaminodantrolene] as the compound, how does the LC retention time read?
A: 5.67 min

Q: Which LC retention time does the source give for `CC(C)(C)NCC(O)c1cc(O)cc(O)c1` (stereo not given) [Terbutaline] here?
A: 3.11 min

Q: Which LC retention time does the source give for `CCCCn1cc(C(=O)c2ccc(C)c3ccccc23)c2ccccc21` [JWH-073-4-Methyl] here?
A: 12.4 min

Q: For `CNC(=O)ON=C(C)C(C)S(C)(=O)=O` (stereo not given) [Butoxycarboxim], which LC retention time is on record?
A: 3.66 min

Q: Which LC retention time does the source give for `O=[N+]([O-])/N=C1\NCCN1Cc1ccc(Cl)nc1` [Imidacloprid] here?
A: 4.76 min

Q: Which LC retention time does the source give for `CCCCc1oc2ccc(NS(C)(=O)=O)cc2c1C(=O)c1ccc(OCCCN(CCCC)CCCC)cc1` [Dronedarone] here?
A: 10.1 min

Q: For `CCOC(=O)C(C)N(C(=O)c1ccccc1)c1ccc(Cl)c(Cl)c1` (stereo not given) [Benzoylprop-ethyl], which LC retention time is on record?
A: 11 min

Q: Which LC retention time does the source give for `CC(C)OC(=O)C(C)(C)Oc1ccc(C(=O)c2ccc(Cl)cc2)cc1` [Fenofibrate] here?
A: 12.6 min

Q: With `CC=C1N(C)C(C)CC1(c1ccccc1)c1ccccc1` (stereo not given) [EDDP] as the compound, how does the LC retention time read?
A: 6.38 min

Q: For `OCCN1CCN(CCCN2c3ccccc3Sc3cccnc32)CC1` [Oxypendyl], which LC retention time is on record?
A: 7.57 min

Q: Which LC retention time does the source give for `CCc1cccc(C)c1N(C(=O)C(=O)O)C(C)C(=O)O` (stereo not given) here?
A: 6.84 min

Q: With `COc1ccc2cccc(CCNC(C)=O)c2c1` [Agomelatine] as the compound, how does the LC retention time read?
A: 8.68 min

Q: With `COC(=O)CCc1ccc(OCC(O)CNC(C)C)cc1` (stereo not given) [Esmolol] as the compound, how does the LC retention time read?
A: 5.18 min

Q: Which LC retention time does the source give for `COC(=O)C(Cc1ccccc1)NC(=O)C(CC(=O)O)NCCC(C)(C)C` (stereo not given) [Neotam] here?
A: 8.83 min

Q: With `CCC1COC(Cn2cncn2)(c2ccc(Cl)cc2Cl)O1` (stereo not given) [Etaconazole] as the compound, how does the LC retention time read?
A: 10.2 min

Q: Which LC retention time does the source give for `O=c1ccc2cc(OC3OC(CO)C(O)C(O)C3O)c(O)cc2o1` (stereo not given) [Esculin] here?
A: 3.69 min

Q: Which LC retention time does the source give for `Fc1cccc(F)c1-c1nnc(-c2ccccc2Cl)nn1` [Flufenzine (Diflovidazin)] here?
A: 10.8 min

Q: Which LC retention time does the source give for `CNC(C)C(=O)c1ccccc1` (stereo not given) [Methcathinone] here?
A: 3.68 min

Q: With `CCCCCCCn1cc(C(=O)c2cccc3ccccc23)c2ccccc21` [JWH-020] as the compound, how does the LC retention time read?
A: 13.4 min

Q: With `CNC(=O)Nc1nc2ccccc2s1` [Benzthiazuron] as the compound, how does the LC retention time read?
A: 7.13 min

Q: With `O=C(NC(=O)c1c(F)cccc1F)Nc1ccc(Oc2ccc(C(F)(F)F)cc2Cl)cc1F` [Flufenoxuron] as the compound, how does the LC retention time read?
A: 12.9 min

Q: For `Cc1nnc2n1-c1ccc(Br)cc1C(c1ccccc1F)=NC2` [Flubromazolam], which LC retention time is on record?
A: 8.04 min

Q: With `CCC1CN2CCC3(O)C(=Nc4cccc(OC)c43)C2CC1C(=COC)C(=O)OC` (stereo not given) [Mitragynine-7-Hydroxy] as the compound, how does the LC retention time read?
A: 5.95 min

Q: For `CCCSP(=S)(OCC)Oc1ccc(Cl)cc1Cl` (stereo not given) [Tokuthion (Prothiophos)], which LC retention time is on record?
A: 13.6 min

Q: With `CCOC(=O)C1(c2ccccc2)CCC=CC1N(C)C` (stereo not given) [Tilidine] as the compound, how does the LC retention time read?
A: 5.1 min

Q: For `CC(=O)Oc1ccc2c(CCN(C(C)C)C(C)C)c[nH]c2c1` [4-AcO-DIPT], which LC retention time is on record?
A: 4.88 min

Q: Which LC retention time does the source give for `CCc1cc2c(s1)-n1c(C)nnc1CN=C2c1ccccc1Cl` [Etizolam] here?
A: 8.31 min

Q: With `Cc1c(Cl)cccc1Nc1ccccc1C(=O)O` [Tolfenamic acid] as the compound, how does the LC retention time read?
A: 11.9 min

Q: With `COCc1cnc(C2=NC(C)(C(C)C)C(=O)N2)c(C(=O)O)c1` (stereo not given) [Imazamox] as the compound, how does the LC retention time read?
A: 4.63 min

Q: For `CCCCCCn1cc(C(=O)c2cccc3ccccc23)cc1-c1ccccc1` [JWH-147], which LC retention time is on record?
A: 13.3 min

Q: Which LC retention time does the source give for `CCN1CCN(c2cc3c(cc2F)c(=O)c(C(=O)O)cn3C2CC2)CC1` [Enrofloxacin] here?
A: 4.64 min

Q: With `CN1C(=O)CN=C(c2ccccc2F)c2cc([N+](=O)[O-])ccc21` [Flunitrazepam] as the compound, how does the LC retention time read?
A: 7.83 min

Q: With `CCCCCCCCCCCC(=O)N(CCO)CCO` [Lauryl diethanolamide] as the compound, how does the LC retention time read?
A: 11.7 min

Q: With `CCN(CC)CCCC(C)Nc1ccnc2cc(Cl)ccc12` (stereo not given) [Chloroquine] as the compound, how does the LC retention time read?
A: 4.16 min

Q: Which LC retention time does the source give for `COc1ccc(OC)c(CC(C)N)c1` (stereo not given) [2-5-DMA] here?
A: 4.78 min

Q: For `CN(C)CCc1c[nH]c2ccccc12` [DMT (Dimethyltryptamine)], which LC retention time is on record?
A: 3.94 min

Q: With `COC(=O)CCCOc1ccc(Cl)cc1Cl` [2.4-DB-methylester] as the compound, how does the LC retention time read?
A: 11.3 min

Q: Which LC retention time does the source give for `COP(=S)(OC)SCn1nnc2ccccc2c1=O` [Azinphos-methyl (Guthion)] here?
A: 8.89 min

Q: For `C=C1CC23CC1(O)CCC2C12C=CC(O)C(C)(C(=O)O1)C2C3C(=O)O` (stereo not given) [Gibberellic acid], which LC retention time is on record?
A: 4.91 min

Q: With `CCN(CC)C(=O)NC1C=C2c3cccc4[nH]cc(c34)CC2N(C)C1` (stereo not given) [Lisuride] as the compound, how does the LC retention time read?
A: 5.92 min

Q: Which LC retention time does the source give for `CN1C(=O)CC(C)(c2ccccc2)C1=O` (stereo not given) [Methsuximide] here?
A: 6.71 min

Q: Which LC retention time does the source give for `CN1Cc2c(N)cccc2C(c2ccccc2)C1` (stereo not given) [Nomifensine] here?
A: 5.42 min

Q: With `CCC1OC(=O)C(C)C(OC2CC(C)(OC)C(O)C(C)O2)C(C)C(OC2OC(C)CC(N(C)C)C2O)C(C)(O)CC(C)C(=NOCOCCOC)C(C)C(O)C1(C)O` (stereo not given) [Roxithromycin] as the compound, how does the LC retention time read?
A: 9.23 min

Q: With `CCC(C(=O)c1ccc2c(c1)OCO2)N(C)C` (stereo not given) [Dibutylone] as the compound, how does the LC retention time read?
A: 4.38 min

Q: For `CC(=O)Oc1ccc2c3c1OC1C(OC(C)=O)C=CC4C(C2)N(C)CCC341` (stereo not given) [Heroin], which LC retention time is on record?
A: 4.63 min

Q: For `CCN(CC)C(=O)C(C)Oc1cccc2ccccc12` (stereo not given) [Napropamide], which LC retention time is on record?
A: 10.2 min

Q: For `Cc1ccc(C(=O)c2ccc(CC(=O)O)n2C)cc1` [Tolmetin], which LC retention time is on record?
A: 7.89 min

Q: Which LC retention time does the source give for `CC(CN(C)C)C(C)(O)Cc1ccc(Cl)cc1` (stereo not given) [Clobutinol] here?
A: 6.31 min

Q: For `CC(C)(C)C(O)C(Oc1ccc(Cl)cc1)n1cncn1` (stereo not given) [Triadimenol], which LC retention time is on record?
A: 9.93 min

Q: Which LC retention time does the source give for `O=C(NC(=O)c1c(F)cccc1F)Nc1cc(Cl)c(OC(F)(F)C(F)C(F)(F)F)cc1Cl` (stereo not given) [Lufenuron] here?
A: 12.5 min

Q: With `CCCc1nn(C)c2c(=O)[nH]c(-c3cc(C(=O)CN4CCN(CC)C(=O)C4=O)ccc3OCC)nc12` [Dioxohongdenafil] as the compound, how does the LC retention time read?
A: 8.18 min

Q: For `CC(=O)SC1CC2=CC(=O)CCC2(C)C2CCC3(C)C(CCC34CCC(=O)O4)C12` (stereo not given) [Spironolactone], which LC retention time is on record?
A: 9.24 min

Q: With `CN1CCCCC1CCN1c2ccccc2Sc2ccc(S(C)=O)cc21` (stereo not given) [Mesoridazine] as the compound, how does the LC retention time read?
A: 6.74 min

Q: For `CCC(NC)C(=O)c1ccccc1` (stereo not given) [Buphedrone], which LC retention time is on record?
A: 4.26 min

Q: For `Nc1nc(N)nc(N)n1` [Melamine], which LC retention time is on record?
A: 1.45 min

Q: With `c1ccc2scnc2c1` [Benzothiazole (BTH)] as the compound, how does the LC retention time read?
A: 6.88 min

Q: Which LC retention time does the source give for `CCn1cc(C(=O)O)c(=O)c2cc3c(cc21)OCO3` [Oxolinic acid] here?
A: 6.03 min

Q: For `CCN(CC)CCNC(=O)COc1ccc(OC)cc1` [Mefexamide], which LC retention time is on record?
A: 4.31 min

Q: For `CSc1ccc(CC(C)N)cc1` (stereo not given) [MTA (4-)], which LC retention time is on record?
A: 5.24 min

Q: For `COC1CC(CC2CCC(C)C(C(C)C(=O)O)O2)OC2(OC(C)(C3CCC(C)(C4OC(C5OC(O)(CO)C(C)CC5C)CC4C)O3)CC2C)C1C` (stereo not given) [Nigericin], which LC retention time is on record?
A: 13.9 min

Q: With `CN(C)c1nc(=O)n(C2CCCCC2)c(=O)n1C` [Hexazinone] as the compound, how does the LC retention time read?
A: 7.09 min

Q: Which LC retention time does the source give for `CC(C)C1(C)N=C(c2ncccc2C(=O)O)NC1=O` (stereo not given) [Imazapyr] here?
A: 4.1 min

Q: With `CCC(c1cccc(O)c1)C(C)CN(C)C` (stereo not given) [Tapentadol] as the compound, how does the LC retention time read?
A: 5.01 min

Q: With `COc1cc(CC(C)N)c(OC)cc1Cl` (stereo not given) [DOC] as the compound, how does the LC retention time read?
A: 5.67 min

Q: For `NC(=O)N=C1SCCN1Cc1ccc(Cl)nc1` [Thiacloprid-amide], which LC retention time is on record?
A: 4.83 min

Q: Which LC retention time does the source give for `CC(Cc1ccc(C(C)(C)C)cc1)CN1CC(C)OC(C)C1` (stereo not given) [Fenpropimorph] here?
A: 10.7 min

Q: Which LC retention time does the source give for `CCCCNC(=O)n1c(NC(=O)OC)nc2ccccc21` [Benomyl (decomposed to Carbendazim)] here?
A: 5.46 min

Q: With `O=C1CN=C(c2ccccc2)c2c(sc3c2CCCC3)N1` [Bentazepam] as the compound, how does the LC retention time read?
A: 9.49 min

Q: Which LC retention time does the source give for `CCOP(=S)(OCC)Oc1ccc(=O)n(-c2ccccc2)n1` [Pyridaphenthion] here?
A: 9.79 min

Q: Which LC retention time does the source give for `CNP(=O)(OC)Oc1ccc(C(C)(C)C)cc1Cl` (stereo not given) [Crufomate] here?
A: 10.5 min

Q: Which LC retention time does the source give for `CCOc1ccccc1OS(=O)(=O)NC(=O)Nc1nc(OC)cc(OC)n1` [Ethoxysulfuron] here?
A: 9.32 min

Q: With `Cc1cc(C)c(C2=C(OC(=O)CC(C)(C)C)C3(CCCC3)OC2=O)c(C)c1` [Spiromesifen] as the compound, how does the LC retention time read?
A: 12.8 min

Q: With `CN(C)CCc1c[nH]c2ccc(O)cc12` [Bufotenin] as the compound, how does the LC retention time read?
A: 2.82 min

Q: With `CCC(=O)c1ccc2c(c1)N(CCCN(C)C)c1ccccc1S2` [Promazine-Propionyl] as the compound, how does the LC retention time read?
A: 8.49 min

Q: For `CCOc1ccccc1C(N)=O` [Ethenzamide], which LC retention time is on record?
A: 5.68 min

Q: For `CCC1C2CC3C4N(C)c5ccccc5C45CC(C2C5O)N3C1O` (stereo not given) [Ajmaline], which LC retention time is on record?
A: 5.19 min

Q: With `COc1ccc2[nH]cc(CCN(C(C)C)C(C)C)c2c1` [MeO-DIPT (5-)] as the compound, how does the LC retention time read?
A: 4.81 min

Q: For `Cc1cccc(C)c1NC(=O)c1cc(S(N)(=O)=O)c(Cl)cc1O` [Xipamide], which LC retention time is on record?
A: 7.36 min

Q: For `Nc1cc(Cl)c(NC2=NCCN2)c(Cl)c1` [Apraclonidin], which LC retention time is on record?
A: 3.09 min

Q: For `CCCc1nn(C)c2c(=S)nc(-c3cc(S(=O)(=O)N4CCN(CC)CC4)ccc3OCC)[nH]c12` [Sildenafil Thiohomo], which LC retention time is on record?
A: 10.6 min

Q: With `Cc1cccc(CN2CCN(C(c3ccccc3)c3ccc(Cl)cc3)CC2)c1` (stereo not given) [Meclozine] as the compound, how does the LC retention time read?
A: 11.3 min

Q: Which LC retention time does the source give for `Cc1onc(-c2ccccc2)c1C(=O)NC1C(=O)N2C1SC(C)(C)C2C(=O)O` (stereo not given) [Oxacillin] here?
A: 6.9 min

Q: For `CN1CCN(CC(=O)N2c3ccccc3C(=O)Nc3cccnc32)CC1` [Pirenzepine], which LC retention time is on record?
A: 4.11 min

Q: For `CCCOc1nn(C(=O)NS(=O)(=O)c2ccccc2C(=O)OC)c(=O)n1C` [Propoxycarbazone], which LC retention time is on record?
A: 5.73 min

Q: For `COC(=O)C(Cc1ccccc1)NC(=O)C(N)CC(=O)O` (stereo not given) [Aspartame], which LC retention time is on record?
A: 5.01 min

Reference: the RepoRT retention time repository (doi:10.1021/acs.analchem.2c02893)
